Assay results: ChEMBL document CHEMBL1144058, “Pikuroside: a novel iridoid from Picrorhiza kurroa” (1999)

Species on record: Mus musculus
Experiment: Antiinflammatory activity against croton oil-induced ear swelling in BALB/c mouse after 6 hrs
Type: functional

Structure (SMILES): COc1cc(C(=O)O[C@H]2[C@@H]3C=CO[C@@H](O[C@@H]4O[C@H](CO)[C@@H](O)[C@H](O)[C@H]4O)[C@@H]3[C@@]3(CO)O[C@@H]23)ccc1O [PICROSIDE II]
- Activity: 46%
